The text below walks through data of patent publication US20260365682A1, “MODULATORS OF TNF-ALPHA ACTIVITY” (Forward Therapeutics, Inc., priority 2022, published 2026).

The structures appear in SMILES notation. Like-named read-outs stand apart in the source and are kept apart here.

The target of the assay is T1, TNF-α (Homo sapiens, UniProt P01375).
T1 construct: purchased R&D 210-TA-020/CF
As to the kind of experiment: TNF-α Induced HEK Blue Cellular Assay (secreted alkaline phosphatase expression, QUANTI-Blue). Format: cell-based. The note with it: HEK Blue TNFα reporter cells, TNF-α 100 μg/ml, 24 hrs at 37° C., inhibition of secreted alkaline phosphatase. Put shortly: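 HEK Blue TNFα reporter cells (10,000/well) in DMEM with 10% FBS received compound ([…] to 0.5 nM final) and TNF-α at […] final for 24 h at 37° C. Secreted alkaline phosphatase read with QUANTI-Blue at 620 nm. IC50 came from a 4-parameter logistic fit after normalising to unstimulated and stimulated DMSO controls.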

T1 sequence (P01375 77-233 limits assumed): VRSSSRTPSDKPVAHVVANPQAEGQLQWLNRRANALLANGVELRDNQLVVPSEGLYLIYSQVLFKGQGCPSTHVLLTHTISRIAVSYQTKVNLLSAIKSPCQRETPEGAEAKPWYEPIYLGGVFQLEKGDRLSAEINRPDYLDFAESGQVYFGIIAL

As for `[2H]C([2H])([2H])N1C(=O)c2cccc(OC(F)F)c2[C@H]2C[C@@H]1c1nc3ccc(C#CC4CN(C(=O)C5(C)CC5)C4)cc3n12` [Example 166, (7R,14R)-1-(difluoromethoxy)-6-(methyl-d3)-11-((1-(1-methylcyclopropane-1-carbonyl)azetidin-3-yl)ethynyl)-6,7-dihydro-7,14-methanobenzo[f]benzo[4,5]imidazo[1,2-a][1,4]diazocin-5(14H)-one], the IC50 (in general, the concentration that inhibits the measured activity by half) (read-out: IC50 value) was less than 100 nM. Regarding `[2H]C([2H])([2H])N1C(=O)c2cccc(OC(F)F)c2[C@H]2C[C@@H]1c1nc3ccc(C#CC4(C)CN(C(=O)C(C)(C)C)C4)cc3n12` [Example 167, (7R,14R)-1-(difluoromethoxy)-6-(methyl-d3)-11-((3-methyl-1-pivaloylazetidin-3-yl)ethynyl)-6,7-dihydro-7,14-methanobenzo[f]benzo[4,5]imidazo[1,2-a][1,4]diazocin-5(14H)-one], the IC50 (read-out: IC50 value) is less than 100 nM. On to `[2H]C([2H])([2H])N1C(=O)c2cccc(OC(F)F)c2[C@H]2C[C@@H]1c1nc3ccc(C#CC4CC4)c(F)c3n12` [Example 168, (7R,14R)-11-(cyclopropylethynyl)-1-(difluoromethoxy)-12-fluoro-6-(methyl-d3)-6,7-dihydro-7,14-methanobenzo[f]benzo[4,5]imidazo[1,2-a][1,4]diazocin-5(14H)-one], for which the IC50 (read-out: IC50 value) lay in the range of 100 to 1000 nM. The same measure, in the same setting: then `[2H]C([2H])([2H])N1C(=O)c2cccc(OC(F)F)c2[C@H]2C[C@@H]1c1nc3ccc(C#C[C@H](C)O)cc3n12` [Example 169, (7R,14R)-1-(difluoromethoxy)-11-((S)-3-hydroxybut-1-yn-1-yl)-6-(methyl-d3)-6,7-dihydro-7,14-methanobenzo[f]benzo[4,5]imidazo[1,2-a][1,4]diazocin-5(14H)-one], with 100 to 1000 nM. On the same count and under the same terms, then `[2H]C([2H])([2H])N1C(=O)c2cccc(OC(F)F)c2[C@H]2C[C@@H]1c1nc3ccc(C#CC)c(F)c3n12` [Example 170, (7R,14R)-1-(difluoromethoxy)-12-fluoro-6-(methyl-d3)-11-(prop-1-yn-1-yl)-6,7-dihydro-7,14-methanobenzo[f]benzo[4,5]imidazo[1,2-a][1,4]diazocin-5(14H)-one], with less than 100 nM; and `[2H]C([2H])([2H])N1C(=O)c2cccc(OC(F)F)c2[C@H]2C[C@@H]1c1nc3ccc(C#CCNC(=O)C4CC4)cc3n12` [Example 171, N-(3-((7R,14R)-1-(difluoromethoxy)-6-(methyl-d3)-5-oxo-5,6,7,14-tetrahydro-7,14-methanobenzo[f]benzo[4,5]imidazo[1,2-a][1,4]diazocin-11-yl)prop-2-yn-1-yl)cyclopropanecarboxamide], with less than 100 nM; and `[2H]C([2H])([2H])N1C(=O)c2cccc(OC(F)F)c2[C@H]2C[C@@H]1c1nc3ccc(C#CCCl)cc3n12` [Example 172, (7R,14R)-11-(3-chloroprop-1-yn-1-yl)-1-(difluoromethoxy)-6-(methyl-d3)-6,7-dihydro-7,14-methanobenzo[f]benzo[4,5]imidazo[1,2-a][1,4]diazocin-5(14H)-one], with less than 100 nM. The same measure, in the same setting: in the case of `[2H]C([2H])([2H])N1C(=O)c2cccc(OC(F)F)c2[C@H]2C[C@@H]1c1nc3ccc(C#CC4CCN(C(C)=O)CC4)cc3n12` [Example 173, (7R,14R)-11-((1-acetylpiperidin-4-yl)ethynyl)-1-(difluoromethoxy)-6-(methyl-d3)-6,7-dihydro-7,14-methanobenzo[f]benzo[4,5]imidazo[1,2-a][1,4]diazocin-5(14H)-one] it was less than 100 nM. For the molecule `[2H]C([2H])([2H])N1C(=O)c2cccc(OC(F)F)c2[C@H]2C[C@@H]1c1nc3ccc(C#CC4CCN(C(=O)C5CC5)CC4)cc3n12` [Example 174, (7R,14R)-11-((1-(cyclopropanecarbonyl)piperidin-4-yl)ethynyl)-1-(difluoromethoxy)-6-(methyl-d3)-6,7-dihydro-7,14-methanobenzo[f]benzo[4,5]imidazo[1,2-a][1,4]diazocin-5(14H)-one], under “read-out: IC50 value”, the IC50 is less than 100 nM. As to `[2H]C([2H])([2H])N1C(=O)c2cccc(OC(F)F)c2[C@H]2C[C@@H]1c1nc3c(F)cc(C#CC4CC4)cc3n12` [Example 175, (7R,14R)-11-(cyclopropylethynyl)-1-(difluoromethoxy)-9-fluoro-6-(methyl-d3)-6,7-dihydro-7,14-methanobenzo[f]benzo[4,5]imidazo[1,2-a][1,4]diazocin-5(14H)-one], the half-inhibitory concentration (IC50) (read-out: IC50 value) was less than 100 nM. Turning to `[2H]C([2H])([2H])N1C(=O)c2cccc(OC(F)F)c2[C@H]2C[C@@H]1c1nc3ccc(C#CCOC4CCC4)cc3n12` [Example 176, (7R,14R)-11-(3-cyclobutoxyprop-1-yn-1-yl)-1-(difluoromethoxy)-6-(methyl-d3)-6,7-dihydro-7,14-methanobenzo[f]benzo[4,5]imidazo[1,2-a][1,4]diazocin-5(14H)-one], under “IC50 value”, the half-maximal inhibitory concentration (IC50) was 100 to 1000 nM. Regarding `[2H]C([2H])([2H])N1C(=O)c2cccc(OC(F)F)c2[C@H]2C[C@@H]1c1nc3ccc(C#CC4CC(C)(O)C4)cc3n12` (stereo partly drawn) [Example 177, (7R,14R)-1-(difluoromethoxy)-11-((3-hydroxy-3-methylcyclobutyl)ethynyl)-6-(methyl-d3)-6,7-dihydro-7,14-methanobenzo[f]benzo[4,5]imidazo[1,2-a][1,4]diazocin-5(14H)-one], the 50% inhibitory concentration (IC50) (read-out: IC50 value) was less than 100 nM. The same measure, in the same setting: in the case of `[2H]C([2H])([2H])N1C(=O)c2cccc(OC(F)F)c2[C@H]2C[C@@H]1c1nc3ccc(C#CC4(C)CN(CC(F)(F)F)C4)cc3n12` [Example 178, (7R,14R)-1-(difluoromethoxy)-6-(methyl-d3)-11-((3-methyl-1-(2,2,2-trifluoroethyl)azetidin-3-yl)ethynyl)-6,7-dihydro-7,14-methanobenzo[f]benzo[4,5]imidazo[1,2-a][1,4]diazocin-5(14H)-one] it was 100 to 1000 nM. The same measure, in the same setting: then `[2H]C([2H])([2H])N1C(=O)c2cccc(OC(F)F)c2[C@H]2C[C@@H]1c1nc3ccc(C#C[C@@H](C)O)cc3n12` [Example 179, (7R,14R)-1-(difluoromethoxy)-11-((R)-3-hydroxybut-1-yn-1-yl)-6-(methyl-d3)-6,7-dihydro-7,14-methanobenzo[f]benzo[4,5]imidazo[1,2-a][1,4]diazocin-5(14H)-one], with 10000 to 30000 nM; and `[2H]C([2H])([2H])N1C(=O)c2cccc(OC(F)F)c2[C@H]2C[C@@H]1c1nc3ccc(C#CC4(C)CCN(C(C)=O)CC4)cc3n12` [Example 180, (7R,14R)-11-((1-acetyl-4-methylpiperidin-4-yl)ethynyl)-1-(difluoromethoxy)-6-(methyl-d3)-6,7-dihydro-7,14-methanobenzo[f]benzo[4,5]imidazo[1,2-a][1,4]diazocin-5(14H)-one], with 10000 to 30000 nM; and `[2H]C([2H])([2H])N1C(=O)c2cccc(OC(F)F)c2[C@H]2C[C@@H]1c1nc3ccc(C#CC4(C)CCN(C(=O)C5CC5)CC4)cc3n12` [Example 181, (7R,14R)-11-((1-(cyclopropanecarbonyl)-4-methylpiperidin-4-yl)ethynyl)-1-(difluoromethoxy)-6-(methyl-d3)-6,7-dihydro-7,14-methanobenzo[f]benzo[4,5]imidazo[1,2-a][1,4]diazocin-5(14H)-one], with 10000 to 30000 nM.

In the case of `[2H]C([2H])([2H])N1C(=O)c2cccc(OC(F)F)c2[C@H]2C[C@@H]1c1nc3ccc(C#CC4(C)CCN(C(=O)C5(C)CC5)C4)cc3n12` (stereo partly drawn) [Example 182, (7R,14R)-1-(difluoromethoxy)-6-(methyl-d3)-11-((3-methyl-1-(1-methylcyclopropane-1-carbonyl)pyrrolidin-3-yl)ethynyl)-6,7-dihydro-7,14-methanobenzo[f]benzo[4,5]imidazo[1,2-a][1,4]diazocin-5(14H)-one], under “read-out: IC50 value”, the IC50 lay in the range of 100 to 1000 nM. On the same count and under the same terms, in the case of `[2H]C([2H])([2H])N1C(=O)c2cccc(OC(F)F)c2[C@H]2C[C@@H]1c1nc3ccc(C#CC4CCCN(C(C)=O)C4)cc3n12` (stereo partly drawn) [Example 183, (7R,14R)-11-((1-acetylpiperidin-3-yl)ethynyl)-1-(difluoromethoxy)-6-(methyl-d3)-6,7-dihydro-7,14-methanobenzo[f]benzo[4,5]imidazo[1,2-a][1,4]diazocin-5(14H)-one] it was less than 100 nM. Regarding `[2H]C([2H])([2H])N1C(=O)c2cccc(OC(F)F)c2[C@H]2C[C@@H]1c1nc3ccc(C#CC4CCCN(C(=O)C5CC5)C4)cc3n12` (stereo partly drawn) [Example 184, (7R,14R)-11-((1-(cyclopropanecarbonyl)piperidin-3-yl)ethynyl)-1-(difluoromethoxy)-6-(methyl-d3)-6,7-dihydro-7,14-methanobenzo[f]benzo[4,5]imidazo[1,2-a][1,4]diazocin-5(14H)-one], the IC50 (read-out: IC50 value) was less than 100 nM. Still for that read-out and setting: then `[2H]C([2H])([2H])N1C(=O)c2cccc(OC(F)F)c2[C@H]2C[C@@H]1c1nc3ccc(C#CC4CCN(S(C)(=O)=O)CC4)cc3n12` [Example 185, (7R,14R)-1-(difluoromethoxy)-6-(methyl-d3)-11-((1-(methylsulfonyl)piperidin-4-yl)ethynyl)-6,7-dihydro-7,14-methanobenzo[f]benzo[4,5]imidazo[1,2-a][1,4]diazocin-5(14H)-one], with less than 100 nM. In the case of `[2H]C([2H])([2H])N1C(=O)c2cccc(OC(F)F)c2[C@H]2C[C@@H]1c1nc3ccc(C#CC4CCN(C(=O)C(C)(C)O)CC4)cc3n12` [Example 186, (7R,14R)-1-(difluoromethoxy)-11-((1-(2-hydroxy-2-methylpropanoyl)piperidin-4-yl)ethynyl)-6-(methyl-d3)-6,7-dihydro-7,14-methanobenzo[f]benzo[4,5]imidazo[1,2-a][1,4]diazocin-5(14H)-one], the half-maximal inhibitory concentration (IC50) (read-out: IC50 value) was less than 100 nM.
